Data from the supplement of paper PMC10307832.

Columns and labels:
Assay in all cases: relative viability (nuclei count vs DMSO), 5 days (fraction); higher = more cells survive
RAF265 + Alpelisib = compound: Cn1c(Nc2ccc(C(F)(F)F)cc2)nc2cc(Oc3ccnc(-c4ncc(C(F)(F)F)[nH]4)c3)ccc21 [RAF265] + Cc1nc(NC(=O)N2CCC[C@H]2C(N)=O)sc1-c1ccnc(C(C)(C)C(F)(F)F)c1 [Alpelisib] (partner 2 µM)
In short: (§1)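 Each reported value is a median over duplicate plates. It expresses relative viability: treated-well nuclei count divided by vehicle-well nuclei count. Lung cancer cell lines in 1536-well plates were dosed by pin tool a day after seeding, alone with one drug or with a fixed anchor-drug dose plus five library-drug doses (not always all listed) in √10 steps, and nuclei were counted after 5 days.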

IPA-3 + Pemetrexed = compound: C1=CC=C2C(=C1)C=CC(=C2SSC3=C(C=CC4=CC=CC=C43)O)O [IPA-3] + Nc1nc2[nH]cc(CCc3ccc(C(=O)N[C@@H](CCC(=O)O)C(=O)O)cc3)c2c(=O)[nH]1 [Pemetrexed] (partner 0.2 µM)
In short: as §1

RAF265 + Decitabine = compound: Cn1c(Nc2ccc(C(F)(F)F)cc2)nc2cc(Oc3ccnc(-c4ncc(C(F)(F)F)[nH]4)c3)ccc21 [RAF265] + Nc1ncn([C@H]2C[C@H](O)[C@@H](CO)O2)c(=O)n1 [Decitabine] (partner 2 µM)
In short: as §1

IPA-3 + Trametinib = compound: C1=CC=C2C(=C1)C=CC(=C2SSC3=C(C=CC4=CC=CC=C43)O)O [IPA-3] + CC(=O)Nc1cccc(-n2c(=O)n(C3CC3)c(=O)c3c(Nc4ccc(I)cc4F)n(C)c(=O)c(C)c32)c1 [Trametinib] (partner 0.02 µM)
In short: as §1

Cell Line	relative viability (RAF265 + Alpelisib; first compound 0.01 µM)	relative viability (RAF265 + Alpelisib; first compound 0.03162 µM)	relative viability (RAF265 + Alpelisib; first compound 0.1 µM)	relative viability (RAF265 + Alpelisib; first compound 1 µM)	relative viability (IPA-3 + Pemetrexed; first compound 0.2 µM)	relative viability (IPA-3 + Pemetrexed; first compound 0.6325 µM)	relative viability (IPA-3 + Pemetrexed; first compound 2 µM)	relative viability (IPA-3 + Pemetrexed; first compound 6.325 µM)	relative viability (IPA-3 + Pemetrexed; first compound 20 µM)	relative viability (RAF265 + Decitabine; first compound 0.01 µM)	relative viability (RAF265 + Decitabine; first compound 0.03162 µM)	relative viability (RAF265 + Decitabine; first compound 0.1 µM)	relative viability (RAF265 + Decitabine; first compound 1 µM)	relative viability (IPA-3 + Trametinib; first compound 0.2 µM)	relative viability (IPA-3 + Trametinib; first compound 0.6325 µM)	relative viability (IPA-3 + Trametinib; first compound 2 µM)	relative viability (IPA-3 + Trametinib; first compound 6.325 µM)	relative viability (IPA-3 + Trametinib; first compound 20 µM)	relative viability (RAF265 + Alpelisib; first compound 0.3162 µM)	relative viability (RAF265 + Decitabine; first compound 0.3162 µM)
HCC-827	0.984	1.02	1.01	0.735	0.264	0.261	0.241	0.254	0.254	0.341	0.325	0.294	0.333	0.553	0.518	0.585	0.597	0.675	–	–
NCI-H650	1.35	1.17	1.21	0.398	1.22	0.873	1.03	0.852	1.15	0.342	0.319	0.395	0.288	1.11	0.973	0.888	1.1	1.32	0.852	0.308
NCI-H838	1.03	0.974	1.01	0.692	0.266	0.236	0.258	0.271	0.322	0.516	0.49	0.494	0.391	0.8	0.519	0.352	0.478	0.517	1.06	0.466
RERF-LC-KJ	0.791	0.573	0.851	0.584	0.487	0.46	0.482	0.489	0.566	0.815	0.616	0.669	0.527	1.01	0.877	0.84	0.872	0.891	0.625	0.583
NCI-H661	0.865	0.586	0.563	0.241	0.934	0.962	0.877	0.911	0.907	0.692	0.527	0.435	0.378	0.679	0.584	0.613	0.589	0.555	0.47	0.442
HCC-366	0.404	0.432	0.539	0.124	0.192	0.147	0.21	0.169	0.178	0.321	0.319	0.402	0.213	0.487	0.301	0.374	0.336	0.283	0.579	0.331
SK-LU-1	0.972	0.494	0.493	0.363	1.16	0.938	1.01	0.926	1.14	0.847	0.597	0.508	0.414	0.585	0.474	0.506	0.467	0.571	0.506	0.569
HCC-44	0.743	0.699	0.882	0.695	0.607	0.575	0.588	0.617	0.616	0.945	0.951	0.95	0.947	1.09	1.04	1.13	0.984	1.05	0.75	0.967
A-427	1.17	1.01	0.976	0.402	1.06	1.01	0.998	0.903	0.982	0.549	0.507	0.514	0.238	0.798	0.769	0.705	0.629	0.732	0.723	0.37
SW 1573	1	0.638	0.645	0.343	0.964	0.87	0.921	0.906	0.162	0.675	0.406	0.4	0.244	0.67	0.546	0.46	0.532	0.271	0.574	0.325
NCI-H322M	0.811	0.784	0.544	0.265	0.594	0.624	0.681	0.669	0.573	0.704	0.667	0.593	0.395	0.459	0.481	0.567	0.453	0.581	0.28	0.495
LK-2	1.07	1.08	1.18	0.778	0.29	0.255	0.272	0.287	0.242	0.385	0.339	0.348	0.179	0.904	0.752	0.721	0.846	0.934	0.655	0.316
NCI-H2023	0.554	0.625	0.721	0.508	0.249	0.207	0.266	0.227	0.243	0.26	0.208	0.198	0.176	0.735	0.453	0.659	0.612	0.584	0.639	0.215
NCI-H596	0.561	0.444	0.495	0.359	0.592	0.497	0.469	0.552	0.435	1.06	0.975	0.913	0.925	0.842	0.756	0.861	0.801	0.818	0.513	1.13
SK-MES-1	0.942	0.807	0.337	0.183	1.04	0.886	0.991	0.824	0.918	0.383	0.295	0.3	0.221	0.568	0.528	0.618	0.639	0.659	0.242	0.231
NCI-H1793	0.709	0.914	0.66	0.293	1.33	0.736	0.927	0.923	0.632	0.554	0.463	0.438	0.277	0.456	0.373	0.448	0.376	0.437	0.477	0.332
